Common to all, as to format: cell-based
Test [1] has as its target T1, human prostanoid TP receptor (Homo sapiens, UniProt P21731).
T1 construct: expressed in transfected cells
T1 sequence (P21731 1-343): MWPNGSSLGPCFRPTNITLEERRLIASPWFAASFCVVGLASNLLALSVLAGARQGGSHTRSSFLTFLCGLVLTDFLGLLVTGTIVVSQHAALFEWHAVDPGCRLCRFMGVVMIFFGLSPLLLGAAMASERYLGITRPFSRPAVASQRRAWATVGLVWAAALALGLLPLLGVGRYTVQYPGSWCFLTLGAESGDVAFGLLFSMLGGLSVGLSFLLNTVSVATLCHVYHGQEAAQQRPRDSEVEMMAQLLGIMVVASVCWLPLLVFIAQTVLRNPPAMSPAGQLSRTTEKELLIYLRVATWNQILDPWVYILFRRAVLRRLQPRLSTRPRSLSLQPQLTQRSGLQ
Nature of the test: FLIPR Ca2+ signaling PG antagonist assay, TP stable cell line. The note with it: HEK-293 EBNA cells, human recombinant TP, no exogenous G-protein; standard agonist U-46619. Put shortly:
(§1)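 HEK-293 EBNA stable lines; EP2 co-expressed with chimeric Gqs, EP1/IP/TP with no exogenous G protein. Fluo-4AM-loaded cells pretreated 4.5 min at 37 °C with compound (0.1–30 μM; TP 0.067–1 μM), then standard agonist (PGE2, cicaprost, U-46619) 10^−11–10^−5 M (TP 10^−12–10^−6 M); peak fluorescence read 3.5 min, nonlinear regression.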

For test [2], the target named is T2, human prostanoid EP2 receptor (Homo sapiens, UniProt P43116).
T2 construct: expressed in transfected cells
Description: FLIPR Ca2+ signaling PG antagonist assay, EP2 stable cell line. Particulars: HEK-293 EBNA cells, human recombinant EP2 with chimeric Gqs; standard agonist PGE2. The procedure, abridged:
as §1

In test [3] the target is T3, human prostanoid DP1 receptor (Homo sapiens, UniProt Q13258).
T3 construct: expressed in transfected cells
T3 sequence (Q13258 1-359): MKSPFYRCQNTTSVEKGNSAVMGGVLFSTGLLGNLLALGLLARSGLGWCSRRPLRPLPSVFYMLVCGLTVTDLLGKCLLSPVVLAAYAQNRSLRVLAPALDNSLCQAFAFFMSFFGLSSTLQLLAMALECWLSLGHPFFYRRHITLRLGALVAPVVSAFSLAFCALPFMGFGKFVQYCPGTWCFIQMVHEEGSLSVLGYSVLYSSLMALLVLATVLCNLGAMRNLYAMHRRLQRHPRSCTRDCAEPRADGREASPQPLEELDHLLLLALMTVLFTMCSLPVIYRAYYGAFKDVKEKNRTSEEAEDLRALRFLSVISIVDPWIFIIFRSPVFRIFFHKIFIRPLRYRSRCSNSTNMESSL
Nature of the test: FLIPR Ca2+ signaling PG antagonist assay, DP1 stable cell line. Particulars: HEK-293 EBNA cells, human recombinant DP1 with chimeric Gqs, standard agonist BW 245C; for Kb: read-out: DP (Kb, PG antagonist activity). The procedure, abridged: (§2)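 Stable HEK-293 EBNA lines (DP1 with chimeric Gqs, EP3 with Gqi, EP1 and FP without exogenous G protein) were Fluo-4AM-loaded and pretreated 4.5 min at 37 °C with compound (0.1–30 μM). Agonist (BW 245C for DP1, PGE2 for EP1/EP3, 17-phenyl-PGF2α for FP) was then added at 10^−11–10^−5 M. Peak Ca2+ fluorescence was taken relative to agonist at 10^−6 M.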

Test [4] has as its target T4, human prostanoid FP receptor (Homo sapiens, UniProt P43088).
T4 construct: expressed in transfected cells
Nature of the test: FLIPR Ca2+ signaling PG antagonist assay, FP stable cell line. Particulars: HEK-293 EBNA cells, human recombinant FP, no exogenous G-protein; standard agonist 17-phenyl-PGF2α. Put shortly:
as §2

Test [5] deals with T5, human prostanoid IP receptor (Homo sapiens, UniProt P43119).
T5 construct: expressed in transfected cells
Description: FLIPR Ca2+ signaling PG antagonist assay, IP stable cell line. Particulars: HEK-293 EBNA cells, human recombinant IP, no exogenous G-protein; standard agonist Cicaprost. The procedure, abridged: as §1

T4 sequence (P43088 whole entry): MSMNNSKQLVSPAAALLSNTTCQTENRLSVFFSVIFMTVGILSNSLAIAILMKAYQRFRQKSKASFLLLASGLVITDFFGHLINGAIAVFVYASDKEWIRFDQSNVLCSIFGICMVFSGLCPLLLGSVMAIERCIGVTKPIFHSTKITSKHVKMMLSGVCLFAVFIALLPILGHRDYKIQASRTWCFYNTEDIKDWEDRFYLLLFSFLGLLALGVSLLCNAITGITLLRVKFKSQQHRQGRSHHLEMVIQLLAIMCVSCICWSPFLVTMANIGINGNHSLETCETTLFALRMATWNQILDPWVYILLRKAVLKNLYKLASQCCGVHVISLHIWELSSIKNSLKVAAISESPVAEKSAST
T5 sequence (P43119 whole entry): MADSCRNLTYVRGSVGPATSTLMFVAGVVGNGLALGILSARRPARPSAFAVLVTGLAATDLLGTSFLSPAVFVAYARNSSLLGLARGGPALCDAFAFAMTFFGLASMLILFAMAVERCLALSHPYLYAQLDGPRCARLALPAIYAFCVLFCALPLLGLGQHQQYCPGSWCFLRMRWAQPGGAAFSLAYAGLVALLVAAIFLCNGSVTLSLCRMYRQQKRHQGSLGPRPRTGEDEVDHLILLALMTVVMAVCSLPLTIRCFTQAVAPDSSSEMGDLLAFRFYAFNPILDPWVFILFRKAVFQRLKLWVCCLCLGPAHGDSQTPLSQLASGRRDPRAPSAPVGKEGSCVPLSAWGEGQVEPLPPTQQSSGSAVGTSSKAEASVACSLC
T2 sequence (P43116 whole entry): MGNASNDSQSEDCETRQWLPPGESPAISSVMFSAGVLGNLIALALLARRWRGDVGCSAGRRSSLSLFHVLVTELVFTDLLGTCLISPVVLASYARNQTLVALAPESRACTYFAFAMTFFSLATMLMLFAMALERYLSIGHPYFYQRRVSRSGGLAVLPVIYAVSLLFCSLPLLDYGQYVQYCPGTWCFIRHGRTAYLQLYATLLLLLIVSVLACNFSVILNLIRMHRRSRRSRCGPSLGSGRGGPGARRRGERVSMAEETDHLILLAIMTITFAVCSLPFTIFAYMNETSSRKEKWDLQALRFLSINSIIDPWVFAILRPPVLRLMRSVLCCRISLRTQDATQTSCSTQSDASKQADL

A word on the Kb: it is the equilibrium dissociation constant of an antagonist, usually derived from a functional assay. In the case of `CCC(CC)COc1ccc(Cl)cc1Cn1ncc2ccc(C(=O)O)cc21` [Example 6], the Kb in test [1] was 0.15 µM; in test [2] it was at least 10 µM; in test [3] it was 7.1 µM; in test [4], 2.4 µM; in test [5], at least 10 µM.
In the case of `CC(C)COc1ccc(Cl)cc1Cn1ncc2cc(C(=O)O)cnc21` [Example 57, 1-(5-Chloro-2-Isobutoxy-Benzyl)-1H-Pyrazolo[3,4-B]Pyridine-5-Carboxylic Acid], the Kb in test [1] was 0.15 µM; in test [2], at least 10 µM; in test [3], 5.5 µM; in test [4] it was 0.19 µM; in test [5], at least 10 µM.
With `CC(C)(C)COc1ccc(Br)cc1Cn1ncc2cc(C(=O)O)ccc21` [Example 52, 1-[5-Bromo-2-(2,2-Dimethyl-Propoxy)-Benzyl]-1H-Indazole-5-Carboxylic Acid], the antagonist dissociation constant (Kb) is 0.002 µM in test [1]; 3.8 µM in test [2]; 2.3 µM in test [3]; 0.011 µM in test [4]; at least 10 µM in test [5].
For `CCc1nn(Cc2cc(Br)ccc2OCC(C)C)c2ccc(C(=O)O)cc12` [Example 64, 1-(5-Bromo-2-Isobutoxy-Benzyl)-3-Ethyl-1H-Indazole-5-Carboxylic Acid], in that order: 0.008 µM, 3.1 µM, 0.26 µM, 0.19 µM and 0.7 µM.
On the same counts, the results for `O=C(O)c1cccc2nn(Cc3cc(Cl)ccc3OCc3ccc(Cl)cc3)cc12` [Example 41, 2-[5-Chloro-2-(4-Chloro-Benzyloxy)-Benzyl]-2H-Indazole-4-Carboxylic Acid] are 7.4 µM, at least 10 µM, 4.7 µM, at least 10 µM and 9.8 µM.
Regarding `Cc1cc2cc(C(=O)O)ccc2n1Cc1cc(Br)ccc1OCC(C)C` [Example 66, 1-(5-Bromo-2-Isobutoxy-Benzyl)-2-Methyl-1H-Indole-5-Carboxylic Acid], the Kb is 0.32 µM in test [1]; at least 10 µM in test [2]; at least 10 µM in test [3]; 0.023 µM in test [4]; 4.6 µM in test [5].
As for `CC(C)COc1ccc(Cl)cc1Cn1cc2cc(C(=O)O)ccc2n1` [Example 16, 2-(5-Chloro-2-Isobutoxy-Benzyl)-2H-Indazole-5-Carboxylic Acid], the Kb in test [1] is 0.4 µM; in test [2] it was at least 10 µM; in test [3], 1.5 µM; in test [4], 3 µM; in test [5] it was 6.6 µM.
Regarding `CC(C)COc1ccc(Cl)cc1Cn1cc2c(C(=O)O)cccc2n1` [Example 37, 2-(5-Chloro-2-Isobutoxy-Benzyl)-2H-Indazole-4-Carboxylic Acid], the Kb in test [1] was 0.2 µM; in test [2], at least 10 µM; in test [3], 1.3 µM; in test [4] it was at least 10 µM; in test [5] it was at least 10 µM.
On to `Cc1ccc(OCC(C)C)c(Cn2ncc3cc(C(=O)O)ccc32)n1` [Example 50, 1-(3-Isobutoxy-6-Methyl-Pyridin-2-ylmethyl)-1H-Indazole-5-Carboxylic Acid], for which the Kb in test [1] was 5.7 µM; in test [2] it was at least 10 µM; in test [3] it was 2.4 µM; in test [4], 4.9 µM; in test [5] it was at least 10 µM.
As for `Cc1nn(Cc2cc(Br)ccc2OCC2(C)CC2)c2ccc(C(=O)O)cc12` [Example 28, 1-[5-Bromo-2-(1-Methyl-Cyclopropylmethoxy)-Benzyl]-3-Methyl-1H-Indazole-5-Carboxylic Acid], the Kb in test [1] stood at 0.007 µM; in test [2], 9.2 µM; in test [3] it was 0.73 µM; in test [4], 0.07 µM; in test [5], 1.53 µM.
For `O=C(O)c1ccc2c(cnn2Cc2cc(Cl)ccc2OCc2ccccc2)c1` [Example 8, 1-(2-Benzyloxy-5-Chloro-Benzyl)-1H-Indazole-5-Carboxylic Acid], in that order: 2.1 µM, 5 µM, 2.6 µM, 0.2 µM and 2.8 µM.
On the same counts, the results for `CC1(COc2ccc(Br)cc2Cn2ncc3cc(C(=O)O)ccc32)CC1` [Example 19] are 0.05 µM, 8.8 µM, 1.2 µM, 0.016 µM and 4.6 µM.
For `CC(C)COc1ccc(OC(F)(F)F)cc1Cn1ncc2cc(C(=O)O)cnc21` [Example 58, 1-(2-Isobutoxy-5-Trifluoromethoxy-Benzyl)-1H-Pyrazolo[3,4-B]Pyridine-5-Carboxylic Acid], in that order: 0.07 µM, at least 10 µM, 1.8 µM, 0.06 µM and at least 10 µM.
On to `O=C(O)c1cccc2c1cnn2Cc1cc(Cl)ccc1OCc1ccc(Cl)cc1` [Example 40, 1-[5-Chloro-2-(4-Chloro-Benzyloxy)-Benzyl]-1H-Indazole-4-Carboxylic Acid], for which the “TP (Kb, PG antagonist activity)” value in test [1] is recorded as “Ag”. The values for the Kb in test [2], in test [3] and in test [4] were 0.9 µM, 1 µM and 0.27 µM, respectively. Besides, the “IP (Kb, PG antagonist activity)” value in test [5] is recorded as “PAg”.
As for `CCC(CC)COc1ccc(C(F)(F)F)cc1Cn1nc(C)c2cc(C(=O)O)ccc21` [Example 26, 1-[2-(2-Ethyl-Butoxy)-5-Trifluoromethyl-Benzyl]-3-Methyl-1H-Indazole-5-Carboxylic Acid], the Kb in test [1] was 0.018 µM; in test [2], at least 10 µM; in test [3], 1.7 µM; in test [4], 0.5 µM; in test [5] it was 1.8 µM.
On the same counts, the results for `O=C(O)c1ccc2cn(Cc3cc(Br)ccc3OCC3CCCC3)nc2c1` [Example 45, 2-(5-Bromo-2-Cyclopentylmethoxy-Benzyl)-2H-Indazole-6-Carboxylic Acid] are 0.08 µM, at least 10 µM, 2.8 µM, 1.4 µM and 7 µM.
`O=C(O)c1ccc2cnn(Cc3cc(Br)ccc3OCC3CCCC3)c2c1` [Example 44, 1-(5-Bromo-2-Cyclopentylmethoxy-Benzyl)-1H-Indazole-6-Carboxylic Acid]: the Kb in test [1] was 0.001 µM; in test [2] it was at least 10 µM; in test [4], 1.4 µM. In test [3], the “DP (Kb, PG antagonist activity)” value is “PAg”. Moreover, in test [5], the “IP (Kb, PG antagonist activity)” value was “PAg”.
Regarding `CC(C)COc1ccc(Br)cc1Cn1cc2cc(C(=O)O)ccc2n1` [Example 17, 2-(5-Bromo-2-Isobutoxy-Benzyl)-2H-Indazole-5-Carboxylic Acid], the antagonist equilibrium constant (Kb) is 3.3 µM in test [1]; at least 10 µM in test [2]; 3.5 µM in test [3]; 2.3 µM in test [4]; at least 10 µM in test [5].
With `O=C(O)c1ccc2c(cnn2Cc2cc(Cl)ccc2OCC2CC2)c1` [Example 11, 1-(5-Chloro-2-Cyclopropylmethoxy-Benzyl)-1H-Indazole-5-Carboxylic Acid], the Kb in test [1] was found to be 0.12 µM; in test [2] it was 2 µM; in test [3], 0.9 µM; in test [4] it was 0.12 µM; in test [5] it was 5.5 µM.
In the case of `CCC(CC)COc1ccc(Cl)cc1Cn1nc(C)c2cc(C(=O)O)ccc21` [Example 23, 1-[5-Chloro-2-(2-Ethyl-Butoxy)-Benzyl]-3-Methyl-1H-Indazole-5-Carboxylic Acid], the Kb in test [1] turned out to be 0.001 µM; in test [2], 7.1 µM; in test [3], 0.9 µM; in test [4] it was 0.17 µM; in test [5] it was 0.5 µM.

The values above are taken from US10988474B2, “Compounds acting at multiple prostaglandin receptors giving a general anti-inflammatory response” (ALLERGAN, INC., priority 2011, dated 2021).
